IC50 data for 19 compounds are collected here from patent publication US12157746B2, “Tetrahydro-1H-pyrazino[2,1-a]isoindolylquinoline compounds for the treatment of autoimmune disease” (F. HOFFMANN-LA ROCHE AG, priority 2018, dated 2024).

This test addresses T1, human TLR9 (Homo sapiens, UniProt Q9NR96).
T1 sequence (Q9NR96 26-1032): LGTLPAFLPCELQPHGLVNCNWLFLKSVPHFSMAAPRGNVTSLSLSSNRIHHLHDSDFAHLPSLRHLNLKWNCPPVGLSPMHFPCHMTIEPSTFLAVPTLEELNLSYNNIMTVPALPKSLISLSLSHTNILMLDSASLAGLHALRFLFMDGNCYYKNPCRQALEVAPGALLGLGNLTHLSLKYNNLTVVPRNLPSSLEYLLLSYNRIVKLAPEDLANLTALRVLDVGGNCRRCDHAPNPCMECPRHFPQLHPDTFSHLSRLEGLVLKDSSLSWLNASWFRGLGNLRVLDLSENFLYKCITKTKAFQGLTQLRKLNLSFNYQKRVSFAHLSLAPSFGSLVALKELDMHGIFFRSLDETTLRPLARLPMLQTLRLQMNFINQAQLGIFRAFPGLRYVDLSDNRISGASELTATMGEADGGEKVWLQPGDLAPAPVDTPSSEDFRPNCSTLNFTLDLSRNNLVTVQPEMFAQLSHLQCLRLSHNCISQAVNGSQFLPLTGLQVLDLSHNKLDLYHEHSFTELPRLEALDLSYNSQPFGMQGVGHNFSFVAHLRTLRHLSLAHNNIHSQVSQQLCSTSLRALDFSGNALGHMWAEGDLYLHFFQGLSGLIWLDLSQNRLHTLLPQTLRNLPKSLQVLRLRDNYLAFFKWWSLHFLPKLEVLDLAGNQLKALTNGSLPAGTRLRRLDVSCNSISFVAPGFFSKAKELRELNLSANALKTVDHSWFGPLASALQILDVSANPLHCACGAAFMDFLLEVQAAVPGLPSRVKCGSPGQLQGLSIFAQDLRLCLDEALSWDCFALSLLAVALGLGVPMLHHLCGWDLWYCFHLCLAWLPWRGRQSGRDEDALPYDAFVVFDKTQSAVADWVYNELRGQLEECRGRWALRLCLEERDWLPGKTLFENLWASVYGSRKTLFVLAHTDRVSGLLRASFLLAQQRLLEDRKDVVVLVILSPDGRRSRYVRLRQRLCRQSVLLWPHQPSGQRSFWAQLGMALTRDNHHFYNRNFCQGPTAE
Kind of test: HEK293-Blue-hTLR-9 cells assay. It counts as cell-based. Particulars: HEK293-Blue-hTLR9 cells, ODN2006 stimulation, 20 hrs, SEAP reporter; read-out: HEK/hTLR9 IC50. From the text:
HEK293-Blue-hTLR-9 Cells Assay:
A stable HEK293-Blue-hTLR-9 cell line was purchased from InvivoGen (Cat. #: hkb-htlr9, San Diego. California USA). These cells were originally designed for studying the stimulation of human TLR9 by monitoring the activation of NF-κB. A SEAP (secreted embryonic alkaline phosphatase) reporter gene was placed under the control of the IFN-β minimal promoter fused to five NF-κB and AP-1-binding sites. The SEAP was induced by activating NF-κB and AP-1 via stimulating HEK-Blue hTLR9 cells with TLR9 ligands. Therefore the reporter expression was declined by TLR9 antagonist under the stimulation of a ligand, such as ODN2006 (Cat. #: tlrl-2006-1, Invivogen, San Diego, California USA), for incubation of 20 hrs. The cell culture supernatant SEAP reporter activity was determined using QUANTI-Blue™ kit (Cat. #: rep-qb1, Invivogen, San Diego, California, USA) at a wavelength of 640 nm, a detection medium that turns purple or blue in the presence of alkaline phosphatase.
HEK293-Blue-hTLR9 cells were incubated at a density of 250.000-450,000 cells/mL in a volume of 170 μL in a 96-well plate in Dulbecco's Modified Eagle's medium (DMEM) containing 4.5 g/L glucose, 50 U/mL penicillin, […], […], 2 mM L-glutamine, 10% (v/v) heat-inactivated fetal bovine serum with addition of 20 μL test compound 1n a serial dilution in the presence of final DMSO at 1% and 10 μL of 20 uM ODN2006 in above DMEM, perform incubation under 37° C. in a CO2 incubator for 20 hrs. Then 20 μL of the supernatant from each well was incubated with 180 μL Quanti-blue substrate solution at 37° C. for 2 h and the absorbance was read at 620˜655 nm using a spectrophotometer. The signaling pathway that TLR9 activation leads to downstream NF-κB activation has been widely accepted, and therefore similar reporter assay was modified for evaluating TLR9 antagonist.

As for `C[C@@H]1CN(c2ccc(C#N)c3ncccc23)C[C@@H]2c3ccc(N4C[C@H](N)[C@@H](O)C4)cc3CN12` [Example 40A, 5-[(4R,10bS)-8-[(3S,4S)-3-amino-4-hydroxy-pyrrolidin-1-yl]-4-methyl-3,4,6,10b-tetrahydro-1H-pyrazino[2,1-a]isoindol-2-yl]quinoline-8-carbonitrile], the IC50 worked out at 59.5 nM.
As for `C[C@@H]1CN(c2ccc(C#N)c3ncccc23)C[C@@H]2c3ccc(N[C@H]4CNC[C@H]4F)cc3CN12` [Example 30, 5-[(4R,10bS)-8-[[(3S,4R)-4-fluoropyrrolidin-3-yl]amino]-4-methyl-3,4,6,10b-tetrahydro-1H-pyrazino[2,1-a]isoindol-2-yl]quinoline-8-carbonitrile], the IC50 amounted to 96.6 nM.
`C[C@@H]1CN(c2ccc(C#N)c3ncccc23)C[C@@H]2c3ccc(N4CCC(N)(CO)C4)cc3CN12` (stereo partly drawn) [Example 19, 5-[(4R,10bS)-8-[3-amino-3-(hydroxymethyl)pyrrolidin-1-yl]-4-methyl-3,4,6,10b-tetrahydro-1H-pyrazino[2,1-a]isoindol-2-yl]quinoline-8-carbonitrile]: the IC50 worked out at 65.3 nM.
Consider `CO[C@@H]1CN(c2ccc3c(c2)CN2C3CN(c3ccc(C#N)c4ncccc34)C[C@H]2C)C[C@@H]1N` (relative stereo) [Example 17, 5-[(4R,10bS)-8-[cis-3-amino-4-methoxy-pyrrolidin-1-yl]-4-methyl-3,4,6,10b-tetrahydro-1H-pyrazino[2,1-a]isoindol-2-yl]quinoline-8-carbonitrile], for which the IC50 is 81 nM.
With `N#Cc1ccc(N2CCN3Cc4cc(N5CCNCC5)ccc4C3C2)c2scnc12` (stereo not shown) [Example 4, 7-(8-piperazin-1-yl-3,4,6,10b-tetrahydro-1H-pyrazino[2,1-a]isoindol-2-yl)-1,3-benzothiazole-4-carbonitrile], the IC50 came out at 101 nM.
In the case of `C[C@@H]1CN(c2ccc(C#N)c3ncccc23)C[C@@H]2c3ccc(N4C[C@H](N)[C@@H](F)C4)cc3CN12` [Example 49, 5-[(4R,10bS)-8-[(3S,4S)-3-amino-4-fluoro-pyrrolidin-1-yl]-4-methyl-3,4,6,10b-tetrahydro-1H-pyrazino[2,1-a]isoindol-2-yl]quinoline-8-carbonitrile], the IC50 was 186 nM.
In the case of `CN[C@H]1CN(c2ccc3c(c2)CN2[C@H](C)CN(c4ccc(C#N)c5ncccc45)C[C@H]32)C[C@@H]1OC` [Example 23, 5-[(4R,10bS)-8-[(3S,4S)-3-methoxy-4-(methylamino)pyrrolidin-1-yl]-4-methyl-3,4,6,10b-tetrahydro-1H-pyrazino[2,1-a]isoindol-2-yl]quinoline-8-carbonitrile], the IC50 came to 92.4 nM.
Regarding `C[C@@H]1CN(c2ccc(C#N)c3ncccc23)C[C@@H]2c3ccc(N4CCNCC(O)C4)cc3CN12` (stereo partly drawn) [Example 15, 5-[(4R,10bS)-8-(6-hydroxy-1,4-diazepan-1-yl)-4-methyl-3,4,6,10b-tetrahydro-1H-pyrazino[2,1-a]isoindol-2-yl]quinoline-8-carbonitrile], the IC50 came out at 83.2 nM.
In the case of `C[C@@H]1CN(c2ccc(C#N)n3nccc23)C[C@@H]2c3ccc(N4C[C@@H](N)[C@](C)(O)C4)cc3CN12` [Example 108, 4-[(4R,10bS)-8-[(3R,4R)-4-amino-3-hydroxy-3-methyl-pyrrolidin-1-yl]-4-methyl-3,4,6,10b-tetrahydro-1H-pyrazino[2,1-a]isoindol-2-yl]pyrazolo[1,5-a]pyridine-7-carbonitrile], the IC50 turned out to be 126 nM.
As for `CO[C@@H]1CNC[C@H]1Nc1ccc2c(c1)CN1[C@H](C)CN(c3ccc(C#N)c4ncccc34)C[C@H]21` [Example 34, 5-[(4R,10bS)-8-[[(3R,4R)-4-methoxypyrrolidin-3-yl]amino]-4-methyl-3,4,6,10b-tetrahydro-1H-pyrazino[2,1-a]isoindol-2-yl]quinoline-8-carbonitrile], the IC50 stood at 66.6 nM.
As for `C[C@@H]1CN(c2ccc(C#N)c3ncccc23)C[C@@H]2c3ccc(OCCN(C)C)cc3CN12` [Example 25, 5-[(4R,10bS)-8-[2-(dimethylamino)ethoxy]-4-methyl-3,4,6,10b-tetrahydro-1H-pyrazino[2,1-a]isoindol-2-yl]quinoline-8-carbonitrile], the figure is 116 nM; as for `C[C@@H]1CN(c2ccc(C#N)n3nccc23)C[C@@H]2c3ccc(N4CCNCC4)cc3CN12` [Example 5, 4-[(4R,10bS)-4-methyl-8-piperazin-1-yl-3,4,6,10b-tetrahydro-1H-pyrazino[2,1-a]isoindol-2-yl]pyrazolo[1,5-a]pyridine-7-carbonitrile], 133 nM; as for `[2H]c1ccc2c(N3C[C@@H](C)N4Cc5cc(N6CC(C)(N)C6)ccc5[C@H]4C3)ccc(C#N)c2n1` [Example 92, 5-[(4R,10bS)-8-(3-amino-3-methyl-azetidin-1-yl)-4-methyl-3,4,6,10b-tetrahydro-1H-pyrazino[2,1-a]isoindol-2-yl]-2-deuterio-quinoline-8-carbonitrile], 148 nM.
As for `C[C@@H]1CN(c2ccc(C#N)c3ncccc23)CC2c3ccc(N4C[C@H](N)[C@@H](O)C4)cc3CN21` (relative stereo) [Example 21, 5-[(4R,10bS)-8-[trans-3-amino-4-hydroxy-pyrrolidin-1-yl]-4-methyl-3,4,6,10b-tetrahydro-1H-pyrazino[2,1-a]isoindol-2-yl]quinoline-8-carbonitrile], the figure is 56.1 nM; as for `C[C@@H]1CN(c2ccc(C#N)c3ncccc23)C[C@@H]2c3ccc(N4C[C@@H](N)[C@@H](F)C4)cc3CN12` [Example 47, 5-[(4R,10bS)-8-[(3R,4S)-3-amino-4-fluoro-pyrrolidin-1-yl]-4-methyl-3,4,6,10b-tetrahydro-1H-pyrazino[2,1-a]isoindol-2-yl]quinoline-8-carbonitrile], 146 nM; as for `C[C@@H]1CN(c2ccc(C#N)c3ncccc23)C[C@@H]2c3ccc(N4C[C@@H](N)[C@H](F)C4)cc3CN12` [Example 48, 5-[(4R,10bS)-8-[(3R,4R)-3-amino-4-fluoro-pyrrolidin-1-yl]-4-methyl-3,4,6,10b-tetrahydro-1H-pyrazino[2,1-a]isoindol-2-yl]quinoline-8-carbonitrile], 193 nM.
With `C[C@@H]1CN(c2ccc(C#N)c3ncccc23)C[C@@H]2c3ccc(NCCN(C)C)cc3CN12` [Example 26, 5-[(4R,10bS)-8-[2-(dimethylamino)ethylamino]-4-methyl-3,4,6,10b-tetrahydro-1H-pyrazino[2,1-a]isoindol-2-yl]quinoline-8-carbonitrile], the IC50 turned out to be 55.8 nM.
As for `C[C@@H]1CN(c2ccc(C#N)c3ncccc23)C[C@@H]2c3ccc(N4C[C@@H](N)[C@H](O)C4)cc3CN12` (single isomer, unassigned) [Example 40B], the IC50 stood at 70.8 nM.
On to `CO[C@@H]1CN(c2ccc3c(c2)CN2[C@H](C)CN(c4ccc(C#N)n5nccc45)C[C@H]32)CC[C@@H]1N` [Example 105, 4-[(4R,10bS)-8-[(3R,4S)-4-amino-3-methoxy-1-piperidyl]-4-methyl-3,4,6,10b-tetrahydro-1H-pyrazino[2,1-a]isoindol-2-yl]pyrazolo[1,5-a]pyridine-7-carbonitrile], for which the IC50 was 163 nM.
